The data set in a line: solvent given as SMILES.

In the case of `c1cnc(-c2c3ccccc3c(-c3cncnc3)c3ccccc23)nc1`, the absorption maximum reads like this: (in CCO) 391 nm; (in ClCCl) 394 nm.

As to `CCn1c2ccccc2c2c3nsnc3c3c4ccccc4n(CC)c3c21`, the absorption maximum by setting is: (in CN(C)C=O) 420 nm; (in Cc1ccccc1) 420 nm; (in ClCCl) 420 nm.

For the setting “in ClC(Cl)Cl”, `CCCCCCn1c2cc(/C=C/c3cccs3)ccc2c2ccc(/C=C/c3cccs3)cc21` displayed an absorption maximum of 408.16 nm.

In the case of `CC(C)(C)c1ccc2c(c1)c1cc(C(C)(C)C)ccc1n2-c1ccccc1-c1nc(-c2ccccc2P(=O)(c2ccccc2)c2ccccc2)nc(-c2ccccc2P(=O)(c2ccccc2)c2ccccc2)n1`, the absorption maximum is, setting by setting: (in C1CCOC1) 343.56 nm; (in CC#N) 347.54 nm; (in CC(C)=O) 343.88 nm; (in CN(C)C=O) 345.95 nm; (in Cc1ccccc1) 320.35 nm; (in ClC(Cl)Cl) 342.93 nm. Besides, the absorption maximum (in ClCCl) was 341.49 nm.

The molecule `c1ccc(N(c2ccccc2)c2ccc(-c3ncc(-c4cnc(-c5ccc(N(c6ccccc6)c6ccccc6)cc5)s4)s3)cc2)cc1` had an absorption maximum (in CO) of 422 nm.

For the molecule `C1=Cc2ccc(N(c3ccccc3)c3ccccc3)cc2C2(c3cc(N(c4ccccc4)c4ccccc4)ccc31)c1ccccc1-c1ccccc12`, the absorption maximum (in ClCCl) was found to be 406 nm.

Consider `CC(C)(C)c1ccc2ccc3cccc4ccc1c2c34`, for which the absorption maximum reads like this: (in CCCCCC) 338 nm; (in CO) 338 nm; (in ClCCl) 341 nm.

Regarding `CCCCCCCCC1(CCCCCCCC)c2cc(-c3ccc([N+](=O)[O-])cc3)ccc2-c2ccc(-c3ccc([N+](=O)[O-])cc3)cc21`, the absorption maximum runs as follows: (in C1CCCCC1) 357 nm; (in CCO) 368 nm; (in CN(C)C=O) 380 nm; (in CS(C)=O) 382 nm; (in Cc1ccccc1) 365 nm; (in ClC(Cl)Cl) 373 nm.

As to `COC(=O)C(Cc1ccc2oc(-c3ccc(-n4c5ccccc5c5ccccc54)cc3)nc2c1)NC(=O)OC(C)(C)C` (centres undefined), the absorption maximum is listed as 340 nm (in C1CCCCC1); 341.8 nm (in C1CCOC1); 341.4 nm (in C1COCCO1); 341.41 nm (in CC1CCCO1); 340 nm (in CC#N); 341.8 nm (in CC(C)(C)O). This molecule also displayed an absorption maximum (in CC(C)=O) of 340.7 nm; an absorption maximum (in CC(C)CC(C)(C)C) of 339.9 nm; an absorption maximum (in CC(C)O) of 340.48 nm; an absorption maximum (in CC(O)CO) of 342.3 nm; an absorption maximum (in CCCCCCCO) of 342.5 nm; an absorption maximum (in CCCCCCO) of 342.59 nm. In addition, the absorption maximum runs as follows: (in CCCCCO) 340.8 nm; (in CCCCO) 341.8 nm; (in CCO) 340.48 nm; (in CCOC(C)=O) 340.02 nm; (in CCOCC) 339.6 nm; (in CN(C)C=O) 342.11 nm. For the same molecule, the absorption maximum (in CO) was 339.7 nm, the absorption maximum (in CS(C)=O) is reported as 343.6 nm, the absorption maximum (in Cc1ccccc1) amounted to 342.61 nm and the absorption maximum (in OCCO) worked out at 343.21 nm.

With `CC(=O)c1ccc(/C=C/C=C/C2=NC3C(=O)NC(N)=NC3N2[C@H]2C[C@H](O)[C@@H](CO)O2)cc1` (some centres undefined), the absorption maximum is listed as 392 nm (in CC#N) and 388 nm (in CO).

As to `CCC1(CC)c2ccccc2-c2c1c1c(c3c2C(CC)(CC)c2cc(N(c4ccccc4)c4ccccc4)ccc2-3)C(CC)(CC)c2ccccc2-1`, the absorption maximum (in C1CCOC1) is 356 nm; the absorption maximum (in CC#N) came to 353 nm; the absorption maximum (in CC(C)=O) is given as 354 nm; the absorption maximum (in CCCCCC) is given as 356 nm; the absorption maximum (in Cc1ccccc1) was determined as 360 nm.

As for `CCN(CC)c1ccc2cc(-c3nc4cc(C(=O)Nc5ccccc5)ccc4o3)c(=O)oc2c1`, for the setting “in ClCCl”, the absorption maximum worked out at 442 nm.

As for `C#CCOc1ccc(C2=[N+]3C(=Nc4c(-c5ccccc5)cc(-c5ccc(O)cc5)n4[B-]3(F)F)C(c3ccccc3)=C2)cc1`, the absorption maximum by setting is: (in CO) 688 nm; (in Cc1ccccc1) 685 nm; (in ClC(Cl)Cl) 680 nm.

As for `CCCCOC(=O)c1cc(Cl)c2c3c(Cl)cc4c5c(cc(Cl)c(c6c(Oc7ccc(OC)cc7)cc(C(=O)OCCCC)c1c26)c53)C(=O)N(c1c(C(C)C)cccc1C(C)C)C4=O`, the absorption maximum (in Cc1ccccc1) stood at 519 nm.

For the molecule `C1=Cc2nc1c(-c1ccccc1)c1ccc([nH]1)c(-c1ccccc1)c1cc(c(-c3ccccc3)c3ccc([nH]3)c2-c2ccccc2)N=C1`, the absorption maximum (in ClCCl) turned out to be 726 nm.

For `c1ccc2cc3c4c(ccc3cc2c1)-c1cccc2cccc-4c12`, the absorption maximum (in CCCCCCC) is 407 nm.

`CC1=C(C#Cc2ccccc2)C(C)=[N+]2C1=C(c1ccccc1)c1c(C)c(C#Cc3ccccc3)c(C)n1[B-]2(F)F`: the absorption maximum is on record as 573 nm (in C1CCOC1) and 561 nm (in ClCCl).

Take `CCN1c2ccc(-c3cc(C(F)(F)F)[nH]n3)cc2Sc2cc(-c3cc(C(F)(F)F)[nH]n3)ccc21`: the absorption maximum turned out to be 336 nm (in C1CCOC1); 336 nm (in CC#N); 336 nm (in CN(C)C=O); 334 nm (in ClCCl); 336 nm (in c1ccccc1).

Consider `CCCN1/C(=C\c2c(-c3ccc(N(C)C)cc3)c(=O)c2=O)C=Cc2ccccc21`, for which the absorption maximum runs as follows: (in C1CCCCC1) 358 nm; (in Cc1ccccc1) 362 nm; (in ClCCl) 509 nm.

Consider `CCn1c2ccccc2c2c(C#N)c3c(ccc4c3cnn4C)nc21`, for which, under “in CCOC(C)=O”, the absorption maximum turned out to be 383 nm.

In turn, `CCOC(=O)c1cc(C(=O)OCC)c2cc(O)ccc2n1` yielded an absorption maximum (in CCO) of 364 nm.

With `CCC1=C(C)C2=C(c3cc(C(=O)Cl)cc(C4=C5C(C)=C(CC)C(C)=[N+]5[B-](F)(F)n5c(C)c(CC)c(C)c54)c3)c3c(C)c(CC)c(C)n3[B-](F)(F)[N+]2=C1C`, the absorption maximum (in C1CCOC1) worked out at 530 nm; the absorption maximum (in CC#N) is 527 nm; the absorption maximum (in CN(C)C=O) was found to be 535 nm; the absorption maximum (in Cc1ccccc1) is listed as 534 nm; the absorption maximum (in ClC(Cl)Cl) turned out to be 534 nm.

Consider `CN1CCN(c2ccc3c4c(cccc24)C(=O)c2ccccc2-3)CC1`, for which the absorption maximum reads like this: (in C1CCCCC1) 428.2 nm; (in C1CCOC1) 446 nm; (in C1COCCO1) 442.8 nm; (in CC1COC(=O)O1) 459 nm; (in CC#N) 453.8 nm; (in CC(C)=O) 449.6 nm. Moreover, the absorption maximum is, setting by setting: (in CCCCCCCCO) 451 nm; (in CCCCCO) 456.4 nm; (in CCCCO) 454.6 nm; (in CCCO) 455.4 nm; (in CCO) 455.4 nm; (in CCOC(C)=O) 443 nm. In addition, the absorption maximum was found to be 454.4 nm (in CN(C)C=O); 456.4 nm (in CO); 460.8 nm (in CS(C)=O); 443.8 nm (in Cc1ccccc1); 455.4 nm (in ClC(Cl)Cl).

`CC(=O)c1ccc(-c2cnc3nn4ccccc4c3c2)cc1` showed an absorption maximum (in C1CCOC1) of 386 nm.

`COc1ccc(-c2c3cc4ccccc4cc3c(C#Cc3ccccc3)c3cc4cc(C)sc4cc23)cc1` had an absorption maximum (in ClCCl) of 580 nm.

As to `CC1=C(I)C(C)=[N+]2C1=C(c1c(-c3ccccn3)nc3ccccn13)c1c(C)cc(C)n1[B-]2(F)F`, under “in ClCCl”, the absorption maximum is reported as 534 nm.

Turning to `COc1ccc(C2=[O+][B-](F)(F)OC(c3ccc4c(c3)Cc3ccccc3-4)=C2)cc1`, for the setting “in CC#N”, the absorption maximum is reported as 424 nm.

Where the note is “in CC#N”, `Cc1ccc(-c2sc(/C(C#N)=C/c3ccc(C#N)cc3)nc2-c2ccc(Cl)cc2)cc1` displayed an absorption maximum of 383 nm.

Where the note is “in ClCCl”, `CCN(CC)c1ccc2c(c1)oc(=O)c1cnc3c(c(C)nn3-c3ccccc3)c12` yielded an absorption maximum of 404 nm.

As to `Cc1cc(C)c(B(c2cc3ccc4cccc5ccc(c2)c3c45)c2c(C)cc(C)cc2C)c(C)c1`, the absorption maximum (in Cc1ccccc1) was found to be 413 nm.

As for `CCCCn1c2ccccc2c2ccc3c4cc(-c5ccccc5)ccc4n(CCCC)c3c21`, the absorption maximum (in ClC(Cl)Cl) came to 330 nm.

For `CCC1=C(C2=C(C3=C(CC)S(=O)(=O)c4cc(-c5ccccc5)ccc43)C(F)(F)C(F)(F)C2(F)F)c2ccc(-c3ccccc3)cc2S1(=O)=O`, for the setting “in C1COCCO1”, the absorption maximum was 336 nm.

On to `CCN(CC)c1ccc(/C=N/C(C#N)=C(C#N)/N=C/c2ccc(N(CC)CC)cc2O)c(O)c1`, for which the absorption maximum by setting is: (in CC#N) 565 nm; (in CN(C)C=O) 571 nm; (in ClCCl) 570 nm.

As for `CN(C)c1ccc(/C=C/c2ncccn2)cc1`, the absorption maximum (in ClCCl) stood at 379 nm.

With `COc1ccc(C#Cc2c3cc4ccccc4cc3c(C#Cc3ccc(OC)cc3)c3cc4sc(C)cc4cc23)cc1`, the absorption maximum (in ClCCl) came to 615 nm.

For `COc1ccc(/C=C/C2=CC(/C=C/c3ccc(OC)cc3)=[O+][B-](OC(C)=O)(OC(C)=O)O2)cc1`, the absorption maximum is, setting by setting: (in C1CCOC1) 456 nm; (in CC#N) 462 nm; (in CC(C)=O) 458 nm; (in CS(C)=O) 468 nm; (in Cc1ccccc1) 456 nm; (in ClC(Cl)Cl) 464 nm. Further, where the note is “in ClCCl”, the absorption maximum is recorded as 464 nm.

As to `O=Cc1nc2ccc(C#Cc3ccc(N(c4ccccc4)c4ccccc4)cc3)cc2s1`, the absorption maximum (in Cc1ccccc1) was 412 nm.

Consider `Cc1ccc(-c2nc3c([nH]2)C2=CC(=O)S[C@]2(C)[C@@]2(C)SC(=O)C=C32)cc1`, for which the absorption maximum (in CC#N) is reported as 455 nm.

In turn, `COc1ccc(C2=N/C(=C\c3ccccc3)C(=O)N2)cc1OC` registered an absorption maximum (in C1COCCO1) of 390 nm.

As for `c1ccc(-c2nc(-c3ccccc3)nc(-c3ccc(-n4c5ccccc5c5c6c(ccc54)-c4ccccc4C6(c4ccccc4)c4ccccc4)cc3)n2)cc1`, the absorption maximum (in Cc1ccccc1) came to 372 nm.
